For orientation: IC50 means the point on the concentration scale where inhibition reaches its midpoint. One may read the ΔTm as the change in melting temperature against a reference sample. The term MIC denotes the least concentration at which growth counts as inhibited.

The subject of one assay is HT-29. Description: Antiproliferative activity against human HT-29 cells assessed as inhibition of cell proliferation. The assay is classed as functional, cell-based.
Assay [1] relates to Calf thymus DNA. The assay is described as follows: Binding affinity to calf thymus DNA assessed as DNA intercalation by measuring change in melting temperature by thermal denaturation assay based UV-Vis spectrophotometric analysis. It counts as nucleic-acid assay. The following applies: Bos taurus.
The test system of assay [2] is MCF7. Description: Antiproliferative activity against human MCF7 cells assessed as inhibition of cell proliferation. It counts as functional, cell-based.
In assay [3] the test system is Calf thymus DNA. The assay is described as follows: Binding affinity to calf thymus DNA assessed as DNA intercalation by measuring change in melting temperature by thermal denaturation assay. It counts as nucleic-acid assay. The following applies: Bos taurus.
The subject of assay [4] is A549. The assay is described as follows: Antiproliferative activity against human A549 cells assessed as inhibition of cell growth. The assay is classed as functional, cell-based.
A further assay deals with HL-60. The assay is described as follows: Antiproliferative activity against human HL-60 cells assessed as inhibition of cell growth. It counts as functional, cell-based.
The test system of the next assay is HeLa. The assay is described as follows: Antiproliferative activity against human HeLa cells assessed as inhibition of cell growth. It counts as functional, cell-based.
In another assay the test system is Pseudomonas aeruginosa. The assay is described as follows: Antibacterial activity against Pseudomonas aeruginosa MTCC 741 assessed as inhibition of bacterial growth by agar well diffusion assay. The assay is classed as functional. (A growth-free zone around the sample is the usual read-out of agar diffusion tests.)
Another assay deals with A2780. Description: Cytotoxicity against human A2780 cells assessed as inhibition of cell growth incubated for 72 hrs by SRB assay. It counts as functional, cell-based. To be noted: A2780, 72 h. In general terms: The SRB assay estimates cell density from bound dye.
Another assay deals with Staphylococcus aureus. The assay is described as follows: Antibacterial activity against Staphylococcus aureus MTCC 96 assessed as inhibition of bacterial growth by agar well diffusion assay. It counts as functional.
A further assay has as its system Escherichia coli. Description: Antibacterial activity against Escherichia coli MTCC 443 assessed as inhibition of bacterial growth by agar well diffusion assay. The assay is classed as functional.
In assay [5] the test system is Staphylococcus epidermidis. Description: Antibacterial activity against Staphylococcus epidermidis MTCC 435 assessed as inhibition of bacterial growth by agar well diffusion assay. The assay is classed as functional.
Another assay has as its system HCT-116. Description: Cytotoxicity against human HCT-116 cells assessed as inhibition of cell growth incubated for 24 hrs by XTT assay. The assay is classed as functional, cell-based. To be noted: HCT-116, 24 h.
The test system of another assay is PANC-1. Description: Cytotoxicity against human PANC-1 cells assessed as inhibition of cell growth incubated for 24 hrs by XTT assay. It counts as functional, cell-based. To be noted: PANC-1, 24 h. On the technique in general: Formazan colour is commonly taken as a measure of viable cells.
In assay [6] the test system is MCF7. Description: Cytotoxicity against human MCF7 cells assessed as inhibition of cell growth incubated for 24 hrs by CCK-8 assay. The assay is classed as functional, cell-based. To be noted: MCF7, 24 h.
The next assay deals with Jurkat. The assay is described as follows: Antiproliferative activity against human Jurkat cells assessed as inhibition of cell proliferation incubated for 72 hrs by MTT assay. It counts as functional, cell-based.
Assay [7] has as its system A549. The assay is described as follows: Antiproliferative activity against human A549 cells assessed as inhibition of cell proliferation incubated for 72 hrs by MTT assay. The following applies: A549, 72 h. It counts as functional, cell-based.
The subject of assay [8] is MCF7. Description: Antiproliferative activity against human MCF7 cells assessed as inhibition of cell proliferation incubated for 72 hrs by MTT assay. It counts as functional, cell-based. The following applies: MCF7, 72 h.
A further assay deals with SK-MEL-28. The assay is described as follows: Growth inhibition against human SK-MEL-28 cells at 10 uM incubated for 48 hrs by sulforhodamine B reagent assay. The assay is classed as functional. The following applies: read-out: GI.

SMILES strings stand for the structures. Values after ≈ are worked out from the molar mass of the structure shown.

Take `CC[n+]1ccn(CCCN2C(=O)c3cccc4cccc(c34)C2=O)c1`: the IC50 with HT-29 and in the assay with MCF7 [2] was 4.6 µM each time. Further, the thermal shift (ΔTm) with Calf thymus DNA [1] amounted to 3 °C.
Turning to `CN(C)CCN1C(=O)c2cccc3c(NCCNCCNCCNCCN)ccc(c23)C1=O`, in the assay with Calf thymus DNA [3], the ΔTm was determined as 11.8 °C. In addition, the IC50 with A549 [4], in the assay on HL-60 and in the assay with HeLa was 13.1 µM in each case.
For the molecule `COc1cccc2cc(-c3csc(N4C(=O)c5ccc6c7c(ccc(c57)C4=O)C(=O)N(c4nc(-c5cc7cccc(OC)c7oc5=O)cs4)C6=O)n3)c(=O)oc12`, the MIC (in the assay with Pseudomonas aeruginosa; with Staphylococcus aureus; with Escherichia coli; in [5]) was 18.8 µg/mL (≈ 24 µM) in each case. Moreover, in the assay with Calf thymus DNA [3], the ΔTm came to 0.1 °C. Besides, the IC50 with A2780 was under 0.1 µM.
As for `O=C1c2ccc3c4c(ccc(c24)C(=O)N1c1nc(-c2cc4ccccc4oc2=O)cs1)C(=O)N(c1nc(-c2cc4ccccc4oc2=O)cs1)C3=O`, the MIC (with Pseudomonas aeruginosa; in the assay with Staphylococcus aureus; in the assay with Escherichia coli; in [5]) was 18.8 µg/mL (≈ 26 µM) each time. In the assay with Calf thymus DNA [3], the ΔTm was determined as 0.1 °C. The IC50 in the assay with A2780 was under 0.1 µM.
Turning to `O=C1c2cccc3cccc(c23)C(=O)N1CCCn1cc[n+](Cc2ccccc2)c1`, the IC50 with HT-29 and in the assay on MCF7 [2] was 4.6 µM in each case. For the same molecule, in the assay with Calf thymus DNA [1], the ΔTm is 3 °C.
As for `CCSc1ccc2c3c(cccc13)C(=O)N(CCCn1cc[n+](C)c1)C2=O`, the IC50 with HT-29 and with MCF7 [2] was 4.6 µM throughout. The ΔTm in the assay with Calf thymus DNA [1] was 3 °C.
On to `CN(C)CCN1C(=O)c2cccc3c(N(CCCl)CCCl)ccc(c23)C1=O`, for which the IC50 in the assay with HCT-116 and in the assay with PANC-1 was 1.9 µM each time.
Turning to `CN(C)CCCNc1ccc2c3c(cccc13)C(=O)N(CCCN(C)C)C2=O`, the IC50 with MCF7 [6] was 2.04 µM.
As to `COS(=O)(=O)CCCCSc1ccc2c3c(cccc13)C(=O)N(CCN(C)C)C2=O`, the IC50 in the assay with HCT-116 and in the assay with PANC-1 was 11.7 µM each time.
As to `CN(C)CCCN1C(=O)c2cccc3c(NCCN)ccc(c23)C1=O`, in the assay on MCF7 [6], the IC50 was 56.6 µM.
With `O=C1c2cccc3cccc(c23)C(=O)N1CC/N=C/c1ccccn1`, the IC50 came out at 5.58 µM in the assay with Jurkat, 5.67 µM with A549 [7] and 5.67 µM in the assay on MCF7 [8].
Regarding `CN1CCN(c2ccc3nc(-c4ccc(OCCCCN5CCN(CCCCN6C(=O)c7cccc8cccc(c78)C6=O)CC5)cc4)[nH]c3c2)CC1`, the inhibition of growth at 10 µM in the assay with SK-MEL-28 was found to be 50%.
As to `O=C1c2cccc3cccc(c23)C(=O)N1CCCCN1CCN(CCCCOc2ccc(-c3nc4ccc(N5CCOCC5)cc4[nH]3)cc2)CC1`, in the assay on SK-MEL-28, the inhibition of growth at 10 µM came out at 50%.

The values above are taken from ChEMBL document CHEMBL5244223, “l,8-Naphthalimide based DNA intercalators and anticancer agents. A systematic review from 2007 to 2017” (Eur J Med Chem, 2018).
